Results from patent publication US8268363B2, “Pharmaceutical combination preparation containing glycyrrhizine, zinc, and a compound comprising a thiol group or a group that is metabolized thereto” (priority 2003, dated 2012).

Tested on: flu symptoms (colds, flu, viral infection of the upper respiratory tract)
Assay: clinical studies in flu symptoms: single substances and the combination
Assay type: in vivo, human
Settings: single treatment; for effect on a scale of 1-10 (1 least effect, 10 maximum effect): daily dose divided in three doses; for average duration of the illness: daily dose divided in three doses (zinc 125 mg, N-acetylcysteine 2400 mg, glycyrrhicinic acid 1500 mg), without treatment normally 7 days
Protocol: In clinical studies each single substance was tested in flu symptoms (colds, flu, viral infection of the upper respiratory tract) whose duration without treatment normal lasted 7 days.
a) Zinc as a single treatment: • 125mg per day, divided in three doses:
b) N-Acetylcysteine • 2400 mg, divided in three doses;
c) Glycyrrhicinic acid • 1500 mg, divided in three doses;
The average duration of illness with the treatment combination of all three of the above substances a), b), and c) in the majority of the cases the duration of the illness was shortened to 24 hours or less. […] 24 hours later, 85% of the patients were completely without symptoms and able to return to work. The maximum duration in a few cases lasted 5 days.
Further, 20 children between the ages of 7 to 15 years old were treated with half of the doses from the combination of a) b) and c). The results were the same as for the adults.

| Compound | effect on a scale of 1-10 (1 least effect, 10 maximum effect) | average duration of the illness [days] |
| --- | --- | --- |
| CC(=O)N[C@@H](CS)C(=O)O [N-Acetylcysteine] | 5 | 4 |
| Glycyrrhicinic acid | 2 | 5.0 |
| Zinc | 2 | 5 |
